Test results as given in patent US20190352288A1, “MATRIX METALLOPROTEINASE (MMP) INHIBITORS AND METHODS OF USE THEREOF” (Foresee Pharmaceuticals Co., Ltd., priority 2018, published 2019).
“Also recorded” adds a separate entry of the source.

Experiments:
recombinant human MMP-7 = target: T1, recombinant human MMP-7 (Homo sapiens, UniProt P09237); assay: MMP selectivity assay, MMP-7; assay type: biochemical; settings: Table 2 selectivity profile
T1 sequence (P09237 95-267): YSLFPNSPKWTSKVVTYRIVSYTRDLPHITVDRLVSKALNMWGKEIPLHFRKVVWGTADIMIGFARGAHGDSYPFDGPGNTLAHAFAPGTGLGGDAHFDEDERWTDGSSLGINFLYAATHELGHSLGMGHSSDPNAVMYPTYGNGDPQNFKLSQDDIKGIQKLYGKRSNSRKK
Experimental: (§1) The inhibitory effect of compounds on the rate of cleaving fluorogenic MMP substrate (Enzo, BML-P128) by recombinant human MMP-12 catalytic domain (Enzo, BML-SE138) was carried out by methods known in the art. Briefly, to each well of a 96-well black opaque plate, all the reagents were sequentially added by pipetting, and the final reaction contained 4 nM of recombinant human MMP-12 catalytic domain, 4 μM of fluorogenic MMP substrate, and various concentrations (0.15 nM to 10,000 nM) of tested compound dilutions in HEPES buffer (pH 7.5) containing 10 mM of CaCl2), 0.01% Brij® 35 (polyoxyethylene (23) lauryl ether), and 0.1 mg/ml of BSA.
(§2) The enzyme and compounds were pre-incubated on a shaker to mix in wells. After an hour of mixing, fluorogenic substrate was added to each well. Reaction without enzyme was used as a blank control in the plate. The plate was then fed into a plate reader to measure fluorescence intensity at Excitation/Emission wavelengths of 340 nm/440 nm every 10 mins for at least 1 hour at 37° C. The IC50 of each compound in MMP-12 inhibition was determined by using a readout obtained at time point 30 minutes.
(§3) The MMP selectivity assay was performed by using other recombinant human MMPs, including MMP-1, MMP-2, MMP-3, MMP-7, MMP-8, MMP-9, MMP-10, MMP-13, and MMP-14. The IC50 of the compounds for the other recombinant human MMPs was determined as described above in Example 1, and are shown in Table 2.

recombinant human MMP-14 = recombinant human MMP-14 (Homo sapiens, UniProt P50281); assay: MMP selectivity assay, MMP-14; assay type: biochemical; settings: Table 2 selectivity profile
Experimental: as §1, §2, §3

recombinant human MMP-10 = recombinant human MMP-10 (Homo sapiens, UniProt P09238); assay: MMP selectivity assay, MMP-10; assay type: biochemical; settings: Table 2 selectivity profile
Chain of recombinant human MMP-10 (P09238 99-476): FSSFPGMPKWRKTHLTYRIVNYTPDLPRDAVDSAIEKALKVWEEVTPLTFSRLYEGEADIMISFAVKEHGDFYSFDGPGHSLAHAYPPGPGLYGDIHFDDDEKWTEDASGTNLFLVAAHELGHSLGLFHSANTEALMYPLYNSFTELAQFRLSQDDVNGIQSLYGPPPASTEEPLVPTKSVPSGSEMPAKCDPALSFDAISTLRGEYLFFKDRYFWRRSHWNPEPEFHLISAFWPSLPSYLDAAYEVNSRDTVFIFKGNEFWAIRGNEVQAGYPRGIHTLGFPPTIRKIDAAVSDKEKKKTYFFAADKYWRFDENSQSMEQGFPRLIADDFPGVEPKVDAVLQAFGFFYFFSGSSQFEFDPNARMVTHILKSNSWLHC
Experimental: as §1, §2, §3

recombinant human MMP-3 = recombinant human MMP-3 (Homo sapiens, UniProt P08254); assay: MMP selectivity assay, MMP-3; assay type: biochemical; settings: Table 2 selectivity profile
Chain of recombinant human MMP-3 (P08254 100-477): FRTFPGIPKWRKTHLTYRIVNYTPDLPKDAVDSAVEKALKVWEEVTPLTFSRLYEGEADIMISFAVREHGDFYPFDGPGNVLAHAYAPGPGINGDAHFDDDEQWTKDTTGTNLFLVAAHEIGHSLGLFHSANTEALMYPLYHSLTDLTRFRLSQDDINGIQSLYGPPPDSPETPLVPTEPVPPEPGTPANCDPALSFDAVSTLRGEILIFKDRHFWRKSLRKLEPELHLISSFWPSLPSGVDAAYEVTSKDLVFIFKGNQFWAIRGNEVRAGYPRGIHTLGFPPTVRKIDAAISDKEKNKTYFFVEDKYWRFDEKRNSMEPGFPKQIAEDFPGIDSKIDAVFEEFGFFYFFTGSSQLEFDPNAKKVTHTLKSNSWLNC
Experimental: as §1, §2, §3

recombinant human MMP-13 = recombinant human MMP-13 (Homo sapiens, UniProt P45452); assay: MMP selectivity assay, MMP-13; assay type: biochemical; settings: Table 2 selectivity profile
Experimental: as §1, §2, §3

[1] = test system: SD rat kidney fibrosis model by unilateral ureteral occlusion (UUO); assay: Efficacy study on SD rat kidney fibrosis model by unilateral ureteral occlusion (UUO); assay type: in vivo, Sprague Dawley (SD) rats
Experimental: This study was to evaluate the therapeutic efficacy of MMP-12 inhibitor, PC-16 on a renal fibrosis model by unilateral ureteral occlusion (UUO). Male Sprague Dawley (SD) rats (180-220 g, n=71) were used in this study. Animals were randomly divided into 4 groups: vehicle group (group-1, n=8), PC-16 2 mg/kg/day group (group-2, n=9), PC-16 6 mg/kg/day group (group-3, n=10), PC-16 20 mg/kg/day group (group-4, n=9). Animals were anesthetized with 2.5% isoflurane inhelation. The left ureter was ligated to create a unilateral ureteral occlusion (UUO) model to induce renal fibrosis. The test article, PC-16 was administrated twice a day via oral delivery after modeling for 14 days. Peripheral blood serum was prepared at pre-modeling and day-15 (one day after last dosing). All animals were euthanized and processed for left kidney pathology studies.
Animals: Gender: Male, SD rats, 180-220 g, total 71. Certificate: 11400700272659, Beijing Vital River Laboratory Animal Technology Co., Ltd., China. Animal holding: Animals were maintained in a temperature-controlled environment with a 12 hours light/12 hours dark cycle and free access to food and water. Experimental procedures were performed according to IACUC guidelines in the KCI (SuZhou) Biotech Inc. (KCI) animal research facility. Model creation: Total […] male SD rats were used in this study. After anesthesia with 2.5% isoflurane inhalation the animal abdomen was opened surgically. The left ureter was exposed and ligated close to the bladder to create the UUO model. After confirming no bleeding, the abdomen wall was closed in layers. The animals were maintained under temperature controlled pad (37° C.) for the recovery from anesthesia, and then were transferred to holding cages with regular food and water.
Experiment grouping: UUO modeling animals were divided into 7 groups randomizedly as vehicle (group-1, n=8), PC-16 2 mg/kg/day (group-5, n=9), PC-16 6 mg/kg/day (group-6, n=10), PC-16 20 mg/kg/day (group-7, n=9) (Table 4.1). Dosing regimen: All test articles were designed as an oral administration via a gastric perfusion. Test articles were designed to be delivered twice a day starting on the same day of modeling for 14 days (Table 4.1). Endpoints: 1) Blood collection: Peripheral blood was collected from all animals in each group and prepared for serum at pre-modeling and day-15 (one day after last dosing), stored at −80° C. All animals were euthanized according to KCI SOP. After confirming animal death without breath and heart bite the left kidneys were perfused with cold PBS followed by 10% neutral formalin and collected for further pathology study. 2) Detection of serum BUN and creatinine: The serum BUN and creatinine level were detected with Hitachi 7060 automatic biochemical analyzer and related test kits. 3) Kidney pathology examination: 3a) Kidney H&E staining and analysis: Following KCI's pathologic SOP all left kidneys were fixed in 10% formalin for at least 24 h at room temperature. After fixation, the kidney was cut longitudinally to get the largest surface and dehydrated in graded ethanol, cleared in xylene, and embedded in paraffin. Thin sections (3-μm) were mounted on glass slides, dewaxed, rehydrated to distilled water, and stained with hematoxylin and eosin (H&E). All stained slides were scanned with NanoZoomer Digital Pathology (S210, Hamamaci, Japan) scanner. Semi quantitative evaluation of the degree of tubular epithelial flattening and dilatation were graded from 0-5 according to the percentage of tubular involvement: score 0=no damage; score 1=1-10% damage; score 2=10-25% damage; score 3=25-50% damage; score 4=50-75% damage; score 5=75-100% damage. Semi quantitative evaluation of the tubular necrosis is graded from 0 to 3 according to the percentage of tubular involvement: score 0=no necrosis; score 1=<25% necrosis; score 2=25-50% necrosis; score 3=>50% necrosis. The average of tubular flattening and dilatation and necrosis as the total tubular damage was presented. […]

recombinant human MMP-9 = recombinant human MMP-9 (Homo sapiens, UniProt P14780); assay: MMP selectivity assay, MMP-9; assay type: biochemical; settings: Table 2 selectivity profile
Chain of recombinant human MMP-9 (P14780 94-707): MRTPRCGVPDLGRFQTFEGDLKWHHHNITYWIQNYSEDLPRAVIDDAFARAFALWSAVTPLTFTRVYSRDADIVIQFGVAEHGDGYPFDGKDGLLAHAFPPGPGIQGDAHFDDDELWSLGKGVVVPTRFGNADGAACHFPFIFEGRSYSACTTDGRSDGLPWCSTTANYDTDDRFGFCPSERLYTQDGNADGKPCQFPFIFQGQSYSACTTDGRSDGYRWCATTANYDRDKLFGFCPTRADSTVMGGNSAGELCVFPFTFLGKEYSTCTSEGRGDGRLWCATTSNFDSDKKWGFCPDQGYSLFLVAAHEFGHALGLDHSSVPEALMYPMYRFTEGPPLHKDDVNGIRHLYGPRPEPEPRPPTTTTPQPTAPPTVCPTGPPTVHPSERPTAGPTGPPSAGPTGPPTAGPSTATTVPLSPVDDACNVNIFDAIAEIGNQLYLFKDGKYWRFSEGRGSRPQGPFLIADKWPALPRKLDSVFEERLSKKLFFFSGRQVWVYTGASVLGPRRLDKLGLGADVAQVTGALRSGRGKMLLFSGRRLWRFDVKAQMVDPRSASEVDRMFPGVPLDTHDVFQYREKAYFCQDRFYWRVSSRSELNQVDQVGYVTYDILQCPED
Experimental: as §1, §2, §3

recombinant human MMP-8 = recombinant human MMP-8 (Homo sapiens, UniProt P22894); assay: MMP selectivity assay, MMP-8; assay type: biochemical; settings: Table 2 selectivity profile
Chain of recombinant human MMP-8 (P22894 101-467): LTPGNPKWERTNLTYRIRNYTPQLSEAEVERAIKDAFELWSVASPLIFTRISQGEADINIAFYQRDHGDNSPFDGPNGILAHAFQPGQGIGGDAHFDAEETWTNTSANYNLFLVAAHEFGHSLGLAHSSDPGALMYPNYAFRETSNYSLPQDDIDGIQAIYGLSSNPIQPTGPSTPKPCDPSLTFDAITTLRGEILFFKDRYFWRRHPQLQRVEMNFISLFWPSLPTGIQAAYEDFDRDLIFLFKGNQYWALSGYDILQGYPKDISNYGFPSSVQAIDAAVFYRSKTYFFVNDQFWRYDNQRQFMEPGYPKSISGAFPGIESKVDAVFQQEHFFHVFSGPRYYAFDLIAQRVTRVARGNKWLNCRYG
Experimental: as §1, §2, §3

[2] = UUO rats, 20 mg/kg/day (p<0.05)

## Cc1cc(COc2ccc(Sc3ccncc3C3NC(=O)NC3=O)cc2)ccn1 (stereo not drawn) [PC-16]
Recombinant human MMP-7
  IC50: > 10 µM
Recombinant human MMP-14
  IC50: 1 to 10 µM
Recombinant human MMP-10
  IC50: 1 to 10 µM
Recombinant human MMP-3
  IC50: 1 to 10 µM
Recombinant human MMP-13
  IC50: 1 to 10 µM
[1]; UUO rats, 6 mg/kg/day (P<0.05)
  collagen-IV deposition in cortex area of left kidney (IHC): significant reduction in collagen-IV deposition
[1]; UUO rats, 20 mg/kg/day (p<0.001)
  interstitial fibrosis score in cortex: significant reduction in the fibrosis score
[1]; [2]
  collagen-I deposition in cortex area of left kidney (IHC): significant reduction in collagen-I deposition
  collagen-IV deposition in cortex area of left kidney (IHC): significant reduction in collagen-IV deposition
[1]; UUO rats, 20 mg/kg/day oral bid 14 days, day-15, 20 mg/kg/day
  serum blood urea nitrogen (BUN) elevation vs vehicle/model group: slightly limit the blood urea nitrogen (BUN) elevation; also recorded: did not show a statistically significant difference
[1]; UUO rats, 2, 6, 20 mg/kg/day oral bid 14 days, 20 more effective than 2 mg/kg/day (p<0.01)
  left kidney tubular damage (renal tubular damage score): clear dose dependent effect
[1]; UUO rats, 2, 6, 20 mg/kg/day oral bid 14 days, dose dependent
  interstitial inflammation in cortex (semi quantitative score): significant reduction
[1]; UUO rats, all dose groups (2, 6, 20 mg/kg/day), dose dependent
  interstitial fibrosis score in cortex: significant reduction in the fibrosis score
Recombinant human MMP-9
  IC50: 1 to 10 µM
Recombinant human MMP-8
  IC50: 1 to 10 µM
